Measured values taken from patent US5948791A, “Quinoline derivatives for treating malaria” (Hoffmann-La Roche Inc., priority 1995, dated 1999).
Counter-ions that a name gives are not always drawn. Like-named read-outs stand apart in the source and are kept apart here.

Key:
[1] = system: Plasmodium falciparum strain NF54; assay: Growth inhibition of Plasmodium falciparum NF54 (chloroquine-sensitive) in vitro, [G-3H]-hypoxanthin incorporation; type: cell-based; details: chloroquine-sensitive strain NF54, 72 h, read-out: IC50 for P. falciparum NF54
Source text: (§1) The ratio of the growth inhibition of a strain which is especially resistant to chloroquine and of a strain which is sensitive to chloroquine gives as the "resistance index" a measurement for the absence of a cross-resistance with chloroquine. Since, for all novel compounds the resistance index lies between 0.7 and 2.5, they inhibit the growth of sensitive as well as resistant strains of the malaria pathogen equally effectively. They are accordingly also suitable for the prophylaxis of a malaria disease and also for the treatment of a malaria disease even when chloroquine is ineffective. The good activity against malaria pathogens is also shown in animal experiments. The effective doses measured after oral and subcutaneous administration to mice infected with malaria pathogens are shown in Table 2 hereinafter.
(§2) Test method for the determination of the activity against Plasmodium falciparum in vitro
(§3) The preparations are tested on intraerythrocytary stages of Plasmodium falciparum from asynchronous cultures according to the method of Desjardin et al. (Desjardins, R. E. et al: Quantitative assessment of antimalarial activity in vitro by a semiautomated microdilution technique. Antimicrob. Agents Chemother. 16, 710-718, (1979)).
(§4) The culture medium consists of RPMI 1640 with the addition of 25 mM HEPES, 25 mM NaHCO3, 100 μg/ml neomycin and […] (A^+). Human-A^+ erythrocytes are used as the Plasmodium falciparum host cells. The parasites are maintained at 37° C. in an atmosphere of 3% O2, 4% CO2, 93% N2 and 95% relative humidity.
(§5) In order to determine the activity, the preparations are dissolved in DMSO, pre-diluted in the culture medium to a suitable starting concentration and subsequently titrated-out on to microtitre plates in the 2nd stage over 6-7 steps. After the addition of the parasite culture (0.7% parasitemia in 2.5% erythrocyte suspension) the test plates are incubated under the conditions given above for 72 h. The parasite growth in the different preparation concentrations is determined using [G-^3 H]-hypoxanthin incorporation compared to untreated control cultures on the same test plates. The 50% growth inhibition (IC50) is calculated according to logit regression analysis from the resulting dosage-activity curve.
(§6) The preparations are tested on at least one chloroquine-resistant and one chloroquine-sensitive Plasmodium falciparum strain. Additional sensitive and resistant strains are included for further characterization.

Plasmodium falciparum K1 = assay: Growth inhibition of Plasmodium falciparum K1 (chloroquine-resistant) in vitro, [G-3H]-hypoxanthin incorporation; type: cell-based, Plasmodium falciparum (strain K1); details: for IC50: Plasmodium falciparum, K1, 72 h, read-out: IC50 for P. falciparum K1; for Resistance index: ratio of the IC50 for K1 and the IC50 for NF54
Source text: as §1, §2, §3, §4, §5, §6

Plasmodium berghei = assay: animal or person; type: in vivo, Plasmodium berghei (strain ANKA) in mice; details: for inhibition in vivo at 10 mg/kg: Plasmodium berghei, mice, blood smears 48 h after treatment
Protocol: Test method for the determination of the activity against Plasmodium berghei in vivo
The preparations are tested on mice infected with malaria pathogens (Plasmodium berghei). Male albino mice (IBM:MORO(SPF), FUELLINSDORF) weighing about 25 g are used as the test animals. They are kept in climatized rooms at 21-22° C. in groups of 5 animals per cage. They receive ad libitum a diet feed with a low PABA content (NAFAG FUTTER " No. 9009 PAB-45, PABA content 45 mg/kg) and drinking water. On the first day of the test (D0) the test animals are infected with Plasmodium berghei (strain ANKA). For this there is used heparinized blood of a donor mouse with about 30% parasitemia, which is diluted with physiological saline such that it contains 10^8 parasitized erythrocytes per ml. 0.2 ml of this suspension is injected intravenously (i.v.) into the mice to be treated and into the control mice.
The substances to be tested are dissolved or suspended in distilled water or in a mixture of 7% Tween 80, 3% alcohol (96%) and water. Usually, 0.25 ml of this solution or suspension is administered once subcutaneously and perorally to groups of 5 test animals. Treatment is effected 24 hours after the infection. 10 control animals are treated in the same manner with solvent or suspension medium per test.
All substances are tested in a first test in a single dosage of 10 mg/kg. Only those substances which in this test (10 mg/kg) have shown a parasitaemia reduction of 90% are used for the titration. Suitable dilutions of the test substance can be used to obtain an accurate titration of the activity.
48 hours after the treatment (D+3) blood smears are prepared from all animals using blood from tail veins and are stained with giemsa. […] The difference in the average values of the infection rates of control group (100%) and treated groups is calculated and expressed as a percentage reduction (GI%). The ED50 or ED90 is determined mathematically by means of the JMP programme (nonlinear fit). The ED50 (ED90) in mg/kg is that dose which after single administration reduces the average erythrocyte infection rate by 50% (90%) in comparison to the control group.

[2] = po, single peroral dose of 10 mg/kg, read-out: Growth inhibition in % after po administration (GI%, percentage reduction of the parasitemia)
[3] = sc, single subcutaneous dose of 10 mg/kg, read-out: Growth inhibition in % after sc administration (GI%, percentage reduction of the parasitemia)

| SMILES | IC50 [1] [ng/mL] | IC50 (Plasmodium falciparum K1) [µg/mL] | Resistance index (Plasmodium falciparum K1) | inhibition in vivo at 10 mg/kg (Plasmodium berghei; [2]) [%] | Growth inhibition after sc administration: entry "toxic" (Plasmodium berghei; mouse, in vivo, sc, 10 mg/kg) | inhibition in vivo at 10 mg/kg (Plasmodium berghei; [3]) [%] |
| --- | --- | --- | --- | --- | --- | --- |
| Cl.Cl.Fc1cccc(F)c1CN[C@H]1CC[C@@H](Nc2ccnc3cc(Cl)ccc23)CC1 [Example 19, cis-N1-(7-Chloro-quinolin-4-yl)-N4-(2,6-difluoro-benzyl)-cyclohexane-1,4-diamine dihydrochloride] | 4.9 | 0.0143 | 2.9 | 21 | toxic | – |
| Clc1ccc2c(N[C@H]3CC[C@@H](NCCCc4ccccc4)CC3)ccnc2c1 [Example 20, cis-N1-(7-Chloro-quinolin-4-yl)-N4-(3-phenyl-propyl)-cyclohexane-1,4-diamine dihydrochloride] | 4.4 | 0.0108 | 2.5 | 94 | – | 98 |
| COc1ccc(CN[C@H]2CC[C@@H](Nc3ccnc4cc(Cl)ccc34)CC2)cc1.Cl.Cl [Example 21, cis-N1-(7-Chloro-quinolin-4-yl)-N4-(4-methoxy-benzyl)-cyclohexane-1,4-diamine dihydrochloride] | 5.1 | 0.0093 | 1.8 | 99.9 | – | 100 |
| Cl.Cl.O=[N+]([O-])c1cccc(Cl)c1CN[C@H]1CC[C@@H](Nc2ccnc3cc(Cl)ccc23)CC1 [Example 22, cis-N1-(2-Chloro-6-nitro-benzyl)-N4-(7-chloro-quinolin-4-yl)-cyclohexane-1,4-diamine dihydrochloride] | 11.6 | 0.0189 | 1.6 | 42 | – | 84 |
| CC(C)(CNc1ccnc2cc(Cl)ccc12)NCc1cc(Cl)cc(Cl)c1.Cl.Cl [Example 23, N1-(7-Chloro-quinolin-4-yl)-N2-(3,5-dichloro-benzyl)-2-methylpropane-1,2-diamine dihydrochloride] | 29.6 | 0.0325 | 1.1 | 97 | – | 98 |
| CC(C)(CNc1ccnc2cc(Cl)ccc12)NCc1ccccc1 [Example 24, N1-(7-Chloro-quinolin-4-yl)-N2-(benzyl)-2-methyl-propane-1,2-diamine dihydrochloride] | 7.9 | 0.0132 | 1.7 | 81 | – | 95 |
| CC(C)(CNc1ccnc2cc(Cl)ccc12)NCc1ccc(Cl)cc1 [Example 25, N1-(7-Chloro-quinolin-4-yl)-N2-(4-chloro-benzyl)-2-methyl-propane-1,2-diamine dihydrochloride] | 17.3 | 0.0129 | 0.7 | 99.2 | – | 99.8 |
| CC(C)(CNc1ccnc2cc(Cl)ccc12)NCc1ccc(Cl)c(F)c1.Cl.Cl [Example 27, N1-(7-Chloro-quinolin-4-yl)-N2-(4-chloro-3-fluoro-benzyl)-2-methyl-propane-1,2-diamine dihydrochloride] | 16 | 0.0233 | 1.5 | 99 | – | 98 |
| CC(=O)O.CC(=O)O.CC(C)(CNc1ccnc2cc(Cl)ccc12)NCc1ccccc1O [Example 28, N1-(7-Chloro-quinolin-4-yl)-N2-(2-hydroxybenzyl)-2-methyl-propane-1,2-diamine diacetate] | 4 | 0.0107 | 2.7 | 79 | – | 96 |
| COc1ccc(CNC(C)(C)CNc2ccnc3cc(Cl)ccc23)c(O)c1.Cl.Cl [Example 29, N1-(7-Chloro-quinolin-4-yl)-N2-(2-hydroxy-4-methoxy-benzyl)-2-methyl-propane-1,2-diamine dihydrochloride] | 7.7 | 0.0162 | 2.1 | 74 | – | 99 |
| COc1cccc(CNC(C)(C)CNc2ccnc3cc(Cl)ccc23)c1O.Cl.Cl [Example 30, N1-(7-Chloro-quinolin-4-yl)-N2-(2-hydroxy-3-methoxy-benzyl)-2-methyl-propane-1,2-diamine dihydrochloride] | 6.7 | 0.0114 | 1.7 | 70 | – | 95 |
| COc1ccc(O)c(CNC(C)(C)CNc2ccnc3cc(Cl)ccc23)c1.Cl.Cl [Example 31, N1-(7-Chloro-quinolin-4-yl)-N2-(2-hydroxy-5-methoxy-benzyl)-2-methyl-propane-1,2-diamine dihydrochloride] | 6.5 | 0.0099 | 1.5 | 39 | – | 98 |
| COc1cc(CNC(C)(C)CNc2ccnc3cc(Cl)ccc23)ccc1O.Cl.Cl [Example 33, N1-(7-Chloro-quinolin-4-yl)-N2-(4-hydroxy-3-methoxy-benzyl)-2-methyl-propane-1,2-diamine dihydrochloride] | 6.3 | 0.0071 | 1.1 | 10 | – | 97 |
| COc1cc(CNC(C)(C)CNc2ccnc3cc(Cl)ccc23)cc(OC)c1.Cl.Cl [Example 40, N1-(7-Chloro-quinolin-4-yl)-N2-(3,5-dimethoxy-benzyl)-2-methyl-propane-1,2-diamine dihydrochloride] | 3.6 | 0.0071 | 2.0 | 84 | – | 95 |
| CC(C)(CNc1ccnc2cc(Cl)ccc12)NCc1ccc(Oc2ccccc2)cc1.Cl.Cl [Example 43, N1-(7-Chloro-quinolin-4-yl)-N2-(4-phenoxy-benzyl)-2-methyl-propane-1,2-diamine dihydrochloride] | 16 | 0.0181 | 1.1 | 30 | – | 98 |
| CSc1ccc(CNC(C)(C)CNc2ccnc3cc(Cl)ccc23)cc1.Cl.Cl [Example 44, N1-(7-Chloro-quinolin-4-yl)-N2-(4-methylsulphanyl-benzyl)-2-methyl-propane-1,2-diamine dihydrochloride] | 10.8 | 0.0154 | 1.4 | 98 | – | 99 |
| CN(C)c1ccc(CNC(C)(C)CNc2ccnc3cc(Cl)ccc23)cc1.Cl.Cl [Example 45, N1-(7-Chloro-quinolin-4-yl)-N2-(4-dimethylamino-benzyl)-2-methyl-propane-1,2-diamine dihydrochloride] | 12.3 | 0.0125 | 1.0 | 98 | – | 97 |
